Here are results for one compound from patent US11969440B2, “Metal (hydr)oxide composite comprising poorly soluble drug, method for manufacturing same, and pharmaceutical composition comprising same” (priority 2020, dated 2024).

In brackets after ≈: the same amount, converted by molar mass.

For data set [1] the following is noted: single oral 40 mg/kg, MgO:HPMC compositions of Comparative Examples 2 to 4, FIG. 41 to 43.
The conditions of data set [2]: cited from earlier work.

As to `O=c1[nH]cc(F)c(=O)[nH]1` [Example 5-FU, 5-FU], the “bioavailability of the compound as MgO composite versus the compound alone” value in data set [1] is on record as “not improved”. Further, the solubility in water in data set [2] is given as 12.2 mg/mL (≈ 93.8 mM).
